The NIST ThermoML archive (doi:10.1016/j.jct.2010.12.020)
Where “and” joins values, the source holds several entries; their conditions need not be identical. Equal values may be shown once. Numbers after ± are expanded uncertainties.

Assay: activity coefficient (dimensionless); of the first substance listed, at infinite dilution; xn = mol fraction of the nth substance listed
Settings: 101 kPa, Liquid, Chromatography, x1 = 0

Compound	activity coefficient (303.15 K)	activity coefficient (313.15 K)	activity coefficient (323.15 K)
C#CCCCC [1-hexyne] + CCCCCCCC[N+](C)(CCCCCCCC)CCCCCCCC.O=C(O)c1ccccc1[S-]	0.7 and 0.69	0.72 ± 0.09	0.75 ± 0.09
c1ccccc1 [benzene] + CCCCCCCC[N+](C)(CCCCCCCC)CCCCCCCC.O=C(O)c1ccccc1[S-]	0.51 and 0.48	0.5 and 0.48	0.5 and 0.47
Cc1ccccc1 [toluene] + CCCCCCCC[N+](C)(CCCCCCCC)CCCCCCCC.O=C(O)c1ccccc1[S-]	0.62 and 0.59	0.62 and 0.59	0.62 and 0.58
C=CCCC [1-pentene] + CCCCCCCC[N+](C)(CCCCCCCC)CCCCCCCC.O=C(O)c1ccccc1[S-]	1.39 and 1.4	1.36 ± 0.17	1.33 and 1.28
C=CCCCCCC [oct-1-ene] + CCCCCCCC[N+](C)(CCCCCCCC)CCCCCCCC.O=C(O)c1ccccc1[S-]	2.09 and 2.06	2.06 and 2.02	2 and 1.93
CCCCC [pentane] + CCCCCCCC[N+](C)(CCCCCCCC)CCCCCCCC.O=C(O)c1ccccc1[S-]	1.81 ± 0.22	1.75 ± 0.22	1.7 and 1.65
C#CCCC [1-pentyne] + CCCCCCCC[N+](C)(CCCCCCCC)CCCCCCCC.O=C(O)c1ccccc1[S-]	0.63 ± 0.08	0.65 ± 0.08	0.67 ± 0.08
CCC(C)=O [butanone] + CCCCCCCC[N+](C)(CCCCCCCC)CCCCCCCC.O=C(O)c1ccccc1[S-]	0.66 and 0.62	0.64 and 0.61	0.62 and 0.59
C=CCCCC [hex-1-ene] + CCCCCCCC[N+](C)(CCCCCCCC)CCCCCCCC.O=C(O)c1ccccc1[S-]	1.57 and 1.55	1.53 and 1.51	1.51 and 1.46
CC(C)=O [acetone] + CCCCCCCC[N+](C)(CCCCCCCC)CCCCCCCC.O=C(O)c1ccccc1[S-]	0.69 and 0.65	0.66 and 0.63	0.64 and 0.61
C#CCCCCCC [1-octyne] + CCCCCCCC[N+](C)(CCCCCCCC)CCCCCCCC.O=C(O)c1ccccc1[S-]	0.88 and 0.84	0.92 and 0.9	0.94 ± 0.11
CCCCCCC [heptane] + CCCCCCCC[N+](C)(CCCCCCCC)CCCCCCCC.O=C(O)c1ccccc1[S-]	2.37 and 2.28	2.29 and 2.22	2.21 and 2.15
CCCCCCCC [octane] + CCCCCCCC[N+](C)(CCCCCCCC)CCCCCCCC.O=C(O)c1ccccc1[S-]	2.77 and 2.72	2.68 and 2.61	2.55 and 2.47
C1CCCCCC1 [cycloheptane] + CCCCCCCC[N+](C)(CCCCCCCC)CCCCCCCC.O=C(O)c1ccccc1[S-]	1.42 and 1.4	1.36 and 1.32	1.31 and 1.25
CCCCCC [hexane] + CCCCCCCC[N+](C)(CCCCCCCC)CCCCCCCC.O=C(O)c1ccccc1[S-]	2.07 ± 0.26	1.98 and 1.96	1.92 and 1.87
CCCCCCCCC [nonane] + CCCCCCCC[N+](C)(CCCCCCCC)CCCCCCCC.O=C(O)c1ccccc1[S-]	3.21 and 3.11	3.07 and 3.03	2.98 and 2.88
C1CCCC1 [cyclopentane] + CCCCCCCC[N+](C)(CCCCCCCC)CCCCCCCC.O=C(O)c1ccccc1[S-]	1.1 and 1.08	1.07 and 1.05	1.04 and 1
C1CCCCCCC1 [cyclooctane] + CCCCCCCC[N+](C)(CCCCCCCC)CCCCCCCC.O=C(O)c1ccccc1[S-]	1.57 ± 0.19	1.5 and 1.45	1.44 and 1.37
C1CCCCC1 [cyclohexane] + CCCCCCCC[N+](C)(CCCCCCCC)CCCCCCCC.O=C(O)c1ccccc1[S-]	1.34 and 1.32	1.28 and 1.26	1.23 and 1.19
